Experimental data taken from USRE46630E1, “Substituted 4-pyridones and their use as inhibitors of neutrophil elastase activity” (Boehringer Ingelheim International GmbH, priority 2012, dated 2017).

biological target: T1, Human neutrophil elastase (Homo sapiens, UniProt P08246); assay: Human Neutrophil Elastase Assay; type: biochemical; conditions: Neutrophil Elastase assay; substrate MeOSuc-Ala-Ala-Pro-Val-AMC 250 μM; 15 min preincubation, 60 min incubation at room temperature; pH 7.5
T1 construct: purchased Calbiochem 324681
T1 sequence (P08246 30-267): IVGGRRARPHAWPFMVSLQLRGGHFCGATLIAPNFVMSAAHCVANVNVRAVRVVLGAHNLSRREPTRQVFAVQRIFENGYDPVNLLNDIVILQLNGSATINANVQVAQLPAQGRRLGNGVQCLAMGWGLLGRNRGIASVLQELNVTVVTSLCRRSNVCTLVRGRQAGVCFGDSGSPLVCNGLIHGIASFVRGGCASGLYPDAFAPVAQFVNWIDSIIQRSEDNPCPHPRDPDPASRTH
How it was run: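 Run in 100 mM Tris, 500 mM NaCl, pH 7.5 with 0.01% BSA, with compounds prediluted in DMSO then buffer (5% DMSO final). Fluorescence was read at 380 nm excitation/460 nm emission after enzyme inactivation. Values were normalised to inactivated-enzyme (0%) and uninhibited-enzyme (100%) controls.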

Compound | IC50
Cc1c(-c2cccc(C(F)(F)F)c2)c(=O)c(C(=O)NC2CCNC2=O)cn1Cc1ccc(C#N)cc1 (centres unmarked) [Example 1.39] | 6.2 nM
Cc1c(-c2cccc(C(F)(F)F)c2)c(=O)c(C(=O)NCC2CC[N+](C)(C)CC2)cn1Cc1ccc(C#N)cc1 [Example 12.3, 4-({[1-(4-Cyano-benzyl)-6-methyl-4-oxo-5-(3-trifluoromethyl-phenyl)-1,4-dihydro-pyridine-3-carbonyl]-amino}-methyl)-1,1-dimethyl-piperidinium chloride] | 59.7 nM
CNC(=O)c1cn(C(C)c2ccc(C#N)cc2)c(C)c(-c2cccc(C(F)F)c2)c1=O (single isomer, unassigned) [Example 8B] | 522 nM
CNC(=O)c1cn(C(C)c2ccc(C#N)cn2)c(C)c(-c2cccc(C(F)F)c2)c1=O (centres unmarked) [Example 16, 1-[1-(5-Cyano-pyridin-2-yl)-ethyl]-5-(3-difluoromethyl-phenyl)-6-methyl-4-oxo-1,4-dihydro-pyridine-3-carboxylic acid methylamide] | 9.9 nM
Cc1c(-c2cccc(C(F)(F)F)c2)c(=O)c(C(=O)NC(C)CO)cn1Cc1ccc(C#N)cc1 (centres unmarked) [Example 1.22] | 44.6 nM
Cc1c(-c2cccc(C(F)(F)F)c2)c(=O)c(C(=O)NC2(C#N)CC2)cn1C(C)c1ccc(C#N)cn1 (centres unmarked) [Example 47.18] | 6.4 nM
Cc1c(-c2ccnc(C(F)(F)F)c2)c(=O)c(C(=O)NC2COCC2O)cn1C(C)c1ccc(C#N)cc1 (centres unmarked) [Example 9.42] | 29.9 nM
Cc1c(-c2cccc(C(F)(F)F)c2)c(=O)c(C(=O)NCC2(O)CCN(C)CC2)cn1Cc1ccc(C#N)cc1 [Example 1.8] | 83 nM
Cc1c(-c2ccnc(C(F)(F)F)c2)c(=O)c(C(=O)NCC(F)F)cn1C(C)c1ccc(C#N)cc1 (centres unmarked) [Example 9.22] | 7.3 nM
Cc1c(-c2ccnc(C(F)(F)F)c2)c(=O)c(C(=O)NCCF)cn1C(C)c1ccc(C#N)cc1 (centres unmarked) [Example 9.44] | 9.8 nM
Cc1c(-c2ccnc(C(F)(F)F)c2)c(=O)c(C(=O)NC2CCCC2O)cn1C(C)c1ccc(C#N)cc1 (centres unmarked) [Example 9.35] | 26.2 nM
Cc1c(-c2cccc(C(F)(F)F)c2)c(=O)c(C(=O)NCC(F)F)cn1C(C)c1ccc(C#N)cn1 (centres unmarked) [Example 47.19] | 10.3 nM
Cc1noc(CNC(=O)c2cn(Cc3ccc(C#N)cc3S(C)(=O)=O)c(C)c(-c3cccc(C(F)(F)F)c3)c2=O)n1 [Example 24] | 4.8 nM
Cc1c(-c2cccc(C(F)(F)F)c2)c(=O)c(C(=O)NC2COC2)cn1Cc1ccc(C#N)cc1 [Example 1.38] | 36.9 nM
CNC(=O)c1cn(Cc2ccc(C#N)cn2)c(C)c(-c2cccc(C(F)F)c2)c1=O [Example 34] | 31.2 nM
Cc1c(-c2cccc(C(F)(F)F)c2)c(=O)c(C(=O)NC2CCS(=O)(=O)C2)cn1Cc1ccc(C#N)cc1 (centres unmarked) [Example 1.64] | 17.2 nM
Cc1c(-c2ccnc(C(F)(F)F)c2)c(=O)c(C(=O)NC2COC2)cn1C(C)c1ccc(C#N)cc1 (centres unmarked) [Example 9.17] | 10.1 nM

Compound | IC50
Cc1c(-c2cccc(C(F)(F)F)c2)c(=O)c(C(=O)NC2CCNC2=O)cn1C(C)c1ccc(C#N)cn1 (centres unmarked) [Example 47.2] | 7.3 nM
Cc1c(-c2cccc(C(F)(F)F)c2)c(=O)c(C(=O)NCc2ccc(S(C)(=O)=O)cc2)cn1Cc1ccncc1 [Example 2.11] | 38.9 nM
Cc1c(-c2ccnc(C(F)(F)F)c2)c(=O)c(C(=O)NCC(C)O)cn1C(C)c1ccc(C#N)cc1 (centres unmarked) [Example 9.61] | 8.6 nM
Cc1c(-c2cccc(C(F)(F)F)c2)c(=O)c(C(=O)N[C@H]2CC[C@H](O)CC2)cn1Cc1ccc(C#N)cc1 [Example 1.27] | 46.4 nM
CNC(=O)c1cn(C(C)c2ccc(C#N)cn2)c(C)c(-c2cccc(C(F)(F)F)c2)c1=O (single isomer, unassigned) [Example 15B] | 67.8 nM
CCCNC(=O)c1cn(Cc2ccc(C#N)cc2)c(C)c(-c2cccc(C(F)(F)F)c2)c1=O [Example 1.18] | 23.8 nM
Cc1c(-c2cccc(C(F)(F)F)c2)c(=O)c(C(=O)NC2CCN(C)C2=O)cn1C(C)c1ccc(C#N)cn1 (centres unmarked) [Example 47.12] | 7.3 nM
Cc1c(-c2ccnc(C(F)(F)F)c2)c(=O)c(C(=O)NCC2CC(O)C2)cn1C(C)c1ccc(C#N)cc1 (centres unmarked) [Example 9.47] | 14.9 nM
COc1cc(-c2c(C)n(Cc3ccc(C#N)cc3)cc(C(=O)NCc3ccc(S(C)(=O)=O)cc3)c2=O)ccn1 [Example 6.6] | 38.6 nM
Cc1c(-c2cccc(C(F)(F)F)c2)c(=O)c(C(N)=O)cn1Cc1ccc(C#N)cc1 [Example 1.52] | 9.6 nM
Cc1c(-c2cccc(C(F)(F)F)c2)c(=O)c(C(=O)NCC2(O)CC2)cn1C(C)c1ccc(C#N)cn1 (centres unmarked) [Example 47.7] | 30.1 nM
CCNC(=O)c1cn(C(CC)c2ccc(C#N)cc2)c(C)c(-c2cccc(C(F)(F)F)c2)c1=O (centres unmarked) [Example 35, 1-[1-(4-Cyano-phenyl)-propyl]-6-methyl-4-oxo-5-(3-trifluoromethyl-phenyl)-1,4-dihydro-pyridine-3-carboxylic acid ethylamide] | 7.8 nM
CCNC(=O)c1cn(C(C)c2ccc(C#N)cn2)c(C)c(-c2ccnc(C(F)(F)F)c2)c1=O (centres unmarked) [Example 19, 1-[1-(5-Cyano-pyridin-2-yl)-ethyl]-2-methyl-4-oxo-2′-trifluoromethyl-1,4-dihydro-[3,4′]bipyridinyl-5-carboxylic acid ethylamide] | 22.2 nM
Cc1c(-c2cccc(C(F)(F)F)c2)c(=O)c(C(=O)NCc2ccn(C)n2)cn1Cc1ccc(C#N)cc1 [Example 1.34] | 8.9 nM
CS(=O)(=O)c1ccc(CNC(=O)c2cn(Cc3ccc(C#N)cc3)cc(-c3cccc(C(F)(F)F)c3)c2=O)cc1 [Example 13.1, 1-(4-Cyano-benzyl)-4-oxo-5-(3-trifluoromethyl-phenyl)-1,4-dihydro-pyridine-3-carboxylic acid 4-methanesulfonyl-benzylamide] | 6.6 nM
Cc1c(-c2cccc(C(F)F)c2)c(=O)c(C(N)=O)cn1C(C)c1ccc(C#N)cc1 (centres unmarked) [Example 8.22] | 21.6 nM

These reach a lower IC50. Values come first.

IC50 | Compound
< 1 nM | Cc1c(-c2cccc(C(F)F)c2)c(=O)c(C(=O)NCc2ccc(S(C)(=O)=O)cc2)cn1Cc1ccc(C#N)cn1 [Example 40, 1-(5-Cyano-pyridin-2-ylmethyl)-5-(3-difluoromethyl-phenyl)-6-methyl-4-oxo-1,4-dihydro-pyridine-3-carboxylic acid 4-methanesulfonyl-benzylamide]
1.1 nM | Cc1c(-c2cccc(C(F)(F)F)c2)c(=O)c(C(=O)NCc2ccc([S+](C)[O-])cc2)cn1Cc1ccc(C#N)cc1 (centres unmarked) [Example 1.10]
2.1 nM | Cc1c(-c2cccc(C(F)(F)F)c2)c(=O)c(C(=O)NCc2cccc(=O)[nH]2)cn1Cc1ccc(C#N)cc1 [Example 1.40]
3.2 nM | Cc1c(-c2cccc(C(F)(F)F)c2)c(=O)c(C(=O)NCc2cccnn2)cn1Cc1ccc(C#N)cc1 [Example 1.41]
4.2 nM | Cc1c(-c2ccnc(C(F)(F)F)c2)c(=O)c(C(=O)NC2CNC(=O)C2)cn1C(C)c1ccc(C#N)cc1 (centres unmarked) [Example 9.8]
4.4 nM | Cc1c(-c2cccc(C(F)(F)F)c2)c(=O)c(C(=O)NCCCO)cn1Cc1ccc(C#N)cc1S(C)(=O)=O [Example 23]
4.2 nM | CNC(=O)c1cn(C(C)c2ccc(C#N)cc2)c(C)c(-c2cccc(CF)c2)c1=O (single isomer, unassigned) [Example 31B]
1.8 nM | Cc1c(-c2cccc(C(F)(F)F)c2)c(=O)c(C(=O)NCc2ccnnc2)cn1Cc1ccc(C#N)cc1 [Example 1.14]
4.1 nM | Cc1c(-c2ccnc(C(F)(F)F)c2)c(=O)c(C(=O)NC2CCNC2=O)cn1C(C)c1ccc(C#N)cc1 (centres unmarked) [Example 9.4]
4.6 nM | Cc1c(-c2ccnc(C(F)(F)F)c2)c(=O)c(C(=O)NC(C)C#N)cn1C(C)c1ccc(C#N)cc1 (centres unmarked) [Example 9.50]
< 1 nM | Cc1c(-c2cccc(Cl)c2)c(=O)c(C(=O)NCc2ccc(S(C)(=O)=O)cc2)cn1Cc1ccc(C#N)cc1 [Example 6.8]
1.7 nM | CCOCCNC(=O)c1cn(C(C)c2ccc(C#N)cc2)c(C)c(-c2cccc(C(F)F)c2)c1=O (centres unmarked) [Example 8.24]
1.4 nM | Cc1c(-c2cccc(C(F)(F)F)c2)c(=O)c(C(=O)NCc2ccc(S(C)(=O)=O)cn2)cn1Cc1ccc(C#N)nc1 [Example 4.8]
3.4 nM | Cc1nc(CNC(=O)c2cn(C(C)c3ccc(C#N)cc3)c(C)c(-c3cccc(C(F)F)c3)c2=O)no1 (centres unmarked) [Example 8.23]
1.8 nM | Cc1c(-c2cccc(C(F)F)c2)c(=O)c(C(=O)NCCCO)cn1C(C)c1ccc(C#N)cc1 (centres unmarked) [Example 8.4]
1.3 nM | Cc1c(-c2cccc(C(F)(F)F)c2)c(=O)c(C(=O)NCC[S+](C)[O-])cn1C(C)c1ccc(C#N)cc1 (centres unmarked) [Example 7.8]
1.7 nM | Cc1c(-c2cccc(C(F)F)c2)c(=O)c(C(=O)NCc2ccccn2)cn1C(C)c1ccc(C#N)cc1 (centres unmarked) [Example 8.19]
4.6 nM | Cc1c(-c2cccc(C(F)(F)F)c2)c(=O)c(C(=O)NCc2ccc(S(C)(=O)=O)cc2)cn1C1(c2ccc(C#N)cc2)CC1 [Example 45, 1-[1-(4-Cyano-phenyl)-cyclopropyl]-6-methyl-4-oxo-5-(3-trifluoromethyl-phenyl)-1,4-dihydro-pyridine-3-carboxylic acid 4-methanesulfonyl-benzylamide]
< 1 nM | Cc1c(-c2cccc(C(F)(F)F)c2)c(=O)c(C(=O)NCc2ccc(S(C)(=O)=O)cn2)cn1Cc1ccc(C#N)cc1 [Example 4.1, 1-(4-cyano-benzyl)-6-methyl-4-oxo-5-(3-trifluoromethyl-phenyl)-1,4-dihydro-pyridine-3-carboxylic acid (5-methanesulfonyl-pyridin-2-ylmethyl)-amide]
3.3 nM | Cc1c(-c2cccc(C(F)F)c2)c(=O)c(C(=O)NCc2cnn(C)c2)cn1C(C)c1ccc(C#N)cc1 (centres unmarked) [Example 8.28]
